Reference: patent publication US8637670B2, “Imidazo [4,5-C]quinoline derivatives and their use in the treatment of tumors and/or inflammation” (Piramal Enterprises Limited, priority 2009, dated 2014)

Columns and labels:
[1] = biological target: T1, PI3Kα kinase (Homo sapiens, UniProt P42336); assay: PI3Kα assay (32P incorporation into phosphatidylinositol, TLC densitometry); type: biochemical; conditions: At 100 nM
T1 construct: purchased Millipore, USA
Description: The assay was designed as in the reference, Cell, 2006, 125, 733-47 (Supplemental Data), the disclosure of which is incorporated by reference for the teaching of the assay.
The kinase reaction was carried out in a 25 μL volume in a 1.5 mL microcentrifuge tube. The reaction mixture consisted of kinase buffer (10 mM Hepes, pH 7.5, 50 mM MgCl2), 20 ng PI3Kα kinase (Millipore, USA), 12.5 μg phosphatidylinositol (PI), 10 μM ATP and 1 μCi ^32γ P dATP. Compounds of Example 1-40 were added at concentrations (stock solution was prepared in DMSO and subsequent dilutions were made in kinase buffer) as mentioned in the table. The reaction mixture was incubated at 30° C. for 20 minutes and was terminated by adding 1:1 mixture of MeOH and chloroform. The tube contents were mixed on a vortex mixer and centrifuged at 10000 rpm for 2 minutes. 10 μL of the organic (lower) phase was spotted on to a TLC plate (silica, mobile phase: n-propanol and 2 M glacial acetic acid in 65:35 ratio). The plates were dried and exposed to an X-ray film. The bands appearing as a result of ^32γ P incorporation in PI were quantitated using the QuantityOne (BioRad, USA) densitometry program. PI-103 (Calbiochem, USA) was used as a standard.

[2] = system: PI3K α; assay: PI3K activity assay, cell-based ELISA of AKT (Ser 473) phosphorylation; conditions: Homo sapiens, Ovarian cell line A2780, 20% FCS stimulation
Description: The assay was designed as in the reference, Biochemical Journal, 2000, 350, 717-722, the disclosure of which is incorporated by reference for the teaching of the assay.
Seed cells (Ovarian cell line A2780, ATCC) were plated in a 96 well microtitre plate at a density of 50,000 cells/cm^2 in appropriate complete cell culture medium. The cells were allowed to adhere for 18-24 hours. The cells were allowed to starve for 24 hours. The cells were pretreated (in triplicates) with the compounds of Example 1-40 (stock solution was prepared in DMSO and subsequent dilutions were made in kinase buffer) at a concentration of 10 μM for one hour. Then the cells were stimulated with 20% FCS for 30 minutes. A typical assay would consist of a set of unstimulated cells, a set of stimulated cells and a set of cells treated with compounds of Example 1-40 and a set of cells treated with the stimulator. The medium was discarded. The cells were fixed with 100 μL of 3.7% formaldehyde for 15 minutes. The formaldehyde was discarded by inverting the plate and tapping it on a thick tissue paper layer to remove traces. The cells were washed and permeabilized with 200 μL PBS+Triton-X 100 solution (hereafter referred to as PBS-Triton, containing 0.1% triton-X 100 in 1×PBS) three times, incubating the cells each time for 5 minutes. 100 μL blocking solution (10% FCS in PBS-Triton) was added and incubated for 1 hour at 25° C. The blocking solution was discarded and cells were incubated with the primary antibody in PBS-Triton at a dilution of 1:500 for 1 hour at RT (25° C.). [The primary antibody is Phospho-AKT (Ser 473); Cell Signaling; USA, Cat. No. 9271]. The primary antibody solution was discarded and the cells were washed 3 times with PBS-Triton solution and incubated with the HRP-conjugated secondary antibody in PBS-Triton at a dilution of 1:500 for 1 hour at RT (25° C.). The cells were washed 3 times with PBS-Triton followed by two washes with PBS (to remove traces of triton-X 100). The OPD (o-phenylene diamine dihydrochloride) substrate was prepared for detection of the signal by dissolving one tablet set (two tablets) of SigmaFast OPD (Sigma, USA, Cat No. P9187) in 20 mL distilled water. It should be kept protected from light. 100 μL OPD solutions was added to the wells and the plate was incubated in the dark for 3-5 minutes (depending upon the development of the color). The reaction was stopped by adding 50 μL 2 NH2SO4. The absorbance was measured at 490 nm. The values were expressed in the treated samples, in terms of percentage or fold decrease in AKT phosphorylation with respect to the induced sample. PI-103 (Calbiochem, USA) was used as a standard.

[3] = system: H460; assay: Cytotoxicity, propidium iodide assay, H460; type: cell-based; conditions: Homo sapiens, NCI-H460; Lung, H460, 48 hours treatment; read-out: IC50, C1b (H460)
Description: (§1) The assay was designed as in the reference, Anticancer Drugs, 2002, 13, 1-8, the disclosure of which is incorporated by reference for the teaching of the assay.
(§2) Cells from cell lines as mentioned in the table given below were seeded at a density of 3000 cells/well in a white opaque 96-well plate. Following incubation at 37° C./5% CO2 for a period of 18-24 hours, the cells were treated with various concentrations (stock solution was prepared in DMSO and subsequent dilutions were made in media as per ATCC guidelines) of the compounds of Example 1-40 was for a period of 48 hours. At the end of treatment, the spent culture medium was discarded, the cells were washed with 1×PBS and 200 μl of 7 μg/ml propidium iodide was added to each well. The plates were frozen at −70° C. for at least 24 hours. For analysis, the plates were brought to RT, allowed to thaw and were read in PoleStar fluorimeter with the fluorescence setting. The percentage of viable cells in the non-treated set of wells was considered to be 100 and the percentage viability following treatment was calculated accordingly. IC50 values were calculated from graphs plotted using these percentages. Table 4 depicts the IC50 values of compounds of Example 1-40 in individual cell lines.
(§3) The abbreviations for the Cell Lines as used in Table 4 are: […]

[4] = system: PC3; assay: Cytotoxicity, propidium iodide assay, PC3; type: cell-based; conditions: Homo sapiens, PC-3; Prostate, PC3, 48 hours treatment; read-out: IC50, C2a (PC3)
Description: as §1, §2, §3

[5] = system: A2780; assay: Cytotoxicity, propidium iodide assay, A2780; type: cell-based; conditions: Homo sapiens; Ovarian, A2780, 48 hours treatment; read-out: IC50, C3a (A2780)
Description: as §1, §2, §3

[6] = system: OVCAR 3; assay: Cytotoxicity, propidium iodide assay, OVCAR 3; type: cell-based; conditions: Homo sapiens; Ovarian, OVCAR 3, 48 hours treatment; read-out: IC50, C3b (OVCAR 3)
Description: as §1, §2, §3

[7] = system: U 373; assay: Cytotoxicity, propidium iodide assay, U 373; type: cell-based; conditions: Homo sapiens, U373 MG; Glioblastoma, U 373, 48 hours treatment; read-out: IC50, C7a (U 373)
Description: as §1, §2, §3

[8] = system: IL-6; assay: Human monocyte assay, LPS-stimulated IL-6 (ELISA); type: cell-based; conditions: human monocytes, 1 μg/ml LPS, 5 hours
Description: (§4) The assay was designed as in the reference, Physiol. Res., 2003, 52, 593-598, the disclosure of which is incorporated by reference for the teaching of the assay.
(§5) Peripheral blood mononuclear cells (hPBMC) were harvested from human blood and suspended in RPMI 1640 culture medium containing 10% FCS, 100 U/mL penicillin and […] streptomycin (assay medium). Monocytes in the hPBMCs were counted using a Coulter Counter following which the cells were resuspended at 2×10^5 monocytes/mL. A cell suspension containing 2×10^4 monocytes was aliquoted per well of a 96-well plate. Subsequently, the hPBMCs were incubated for 4-5 hours at 37° C. under 5% CO2 (During the incubation, the monocytes adhered to the bottom of 96-well plastic culture plate). Following the incubation, the non-adherent lymphocytes were washed with assay medium and the adherent monocytes re-fed with assay medium. After a 48-hour incubation period (37° C., 5% CO2), monocytes were pretreated with various concentrations of compounds of Example 1-40 (prepared in DMSO) or vehicle (0.5% DMSO) for 30 minutes and stimulated with 1 μg/ml LPS (Escherchia coli 0111:B4, Sigma Chemical Co., St. Louis, Mo.). The incubation was continued for 5 hours at 37° C., 5% CO2. Supernatants were harvested, assayed for IL-6 and TNF-α by ELISA as described by the manufacturer (BD Biosciences, USA). Dexamethasone (10 μM) was used as standard for this assay. The 50% inhibitory concentration (IC50) values were calculated by a nonlinear regression method. In all experiments, a parallel plate was run to ascertain the toxicity of compounds of Example 1-40. The toxicity was determined using the MTS assay as described in Am. J. Physiol. Cell Physiol., 2003, 285, C813-C822.

[9] = system: TNF-α; assay: Human monocyte assay, LPS-stimulated TNF-α (ELISA); type: cell-based; conditions: human monocytes, 1 μg/ml LPS, 5 hours, read-out: TNFα (IC50)
Description: as §4, §5

[10] = system: A549; assay: Cytotoxicity, propidium iodide assay, A549; type: cell-based; conditions: Homo sapiens; Lung, A549, 48 hours treatment; read-out: IC50, C1a (A549)
Description: as §1, §2, §3

[11] = system: HCT116; assay: Cytotoxicity, propidium iodide assay, HCT116; type: cell-based; conditions: Homo sapiens, HCT-116; Colon, HCT116, 48 hours treatment; read-out: IC50, C4a (HCT116)
Description: as §1, §2, §3

[12] = system: AsPC 1; assay: Cytotoxicity, propidium iodide assay, AsPC 1; type: cell-based; conditions: Homo sapiens, ASPC1; Pancreatic, AsPC 1, 48 hours treatment; read-out: IC50, C5b (AsPC 1)
Description: as §1, §2, §3

[13] = system: BxPC3; assay: Cytotoxicity, propidium iodide assay, BxPC3; type: cell-based; conditions: Homo sapiens, BXPC-3; Pancreatic, BxPC3, 48 hours treatment; read-out: IC50, C5c (BxPC3)
Description: as §1, §2, §3

[14] = system: MDA MB 468; assay: Cytotoxicity, propidium iodide assay, MDA MB 468; type: cell-based; conditions: Homo sapiens; Breast, MDA MB 468, 48 hours treatment; read-out: IC50, C6b (MDA MB 468)
Description: as §1, §2, §3

[15] = system: BT 549; assay: Cytotoxicity, propidium iodide assay, BT 549; type: cell-based; conditions: Homo sapiens; Breast, BT 549, 48 hours treatment; read-out: IC50, C6d (BT 549)
Description: as §1, §2, §3

T1 sequence (P42336 whole entry): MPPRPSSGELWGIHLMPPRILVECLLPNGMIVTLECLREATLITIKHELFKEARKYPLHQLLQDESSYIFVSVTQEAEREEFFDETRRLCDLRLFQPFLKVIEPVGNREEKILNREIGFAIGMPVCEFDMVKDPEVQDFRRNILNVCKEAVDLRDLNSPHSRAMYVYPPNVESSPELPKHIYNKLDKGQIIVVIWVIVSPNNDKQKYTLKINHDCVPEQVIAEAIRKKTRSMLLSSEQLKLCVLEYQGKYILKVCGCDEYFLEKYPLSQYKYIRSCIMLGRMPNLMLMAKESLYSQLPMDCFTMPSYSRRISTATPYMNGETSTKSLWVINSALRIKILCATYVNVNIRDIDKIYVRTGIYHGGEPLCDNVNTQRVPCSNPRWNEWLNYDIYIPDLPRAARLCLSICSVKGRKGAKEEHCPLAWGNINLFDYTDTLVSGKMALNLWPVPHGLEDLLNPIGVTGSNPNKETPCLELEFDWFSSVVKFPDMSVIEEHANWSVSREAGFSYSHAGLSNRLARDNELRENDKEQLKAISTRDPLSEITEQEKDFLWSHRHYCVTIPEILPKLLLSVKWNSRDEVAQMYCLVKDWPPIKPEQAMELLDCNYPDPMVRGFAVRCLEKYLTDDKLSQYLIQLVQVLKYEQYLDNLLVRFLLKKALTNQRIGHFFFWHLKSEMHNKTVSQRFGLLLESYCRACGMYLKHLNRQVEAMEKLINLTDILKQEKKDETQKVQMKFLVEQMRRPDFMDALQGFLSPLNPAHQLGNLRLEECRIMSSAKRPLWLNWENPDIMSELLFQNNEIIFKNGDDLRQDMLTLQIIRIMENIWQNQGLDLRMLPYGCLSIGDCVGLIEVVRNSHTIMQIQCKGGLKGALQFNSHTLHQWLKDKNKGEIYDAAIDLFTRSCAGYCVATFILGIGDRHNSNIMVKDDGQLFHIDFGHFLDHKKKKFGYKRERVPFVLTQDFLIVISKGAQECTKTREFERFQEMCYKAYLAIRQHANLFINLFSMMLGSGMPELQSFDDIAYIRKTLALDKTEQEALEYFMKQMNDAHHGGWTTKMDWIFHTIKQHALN
T1 sequence (P27986 whole entry partner): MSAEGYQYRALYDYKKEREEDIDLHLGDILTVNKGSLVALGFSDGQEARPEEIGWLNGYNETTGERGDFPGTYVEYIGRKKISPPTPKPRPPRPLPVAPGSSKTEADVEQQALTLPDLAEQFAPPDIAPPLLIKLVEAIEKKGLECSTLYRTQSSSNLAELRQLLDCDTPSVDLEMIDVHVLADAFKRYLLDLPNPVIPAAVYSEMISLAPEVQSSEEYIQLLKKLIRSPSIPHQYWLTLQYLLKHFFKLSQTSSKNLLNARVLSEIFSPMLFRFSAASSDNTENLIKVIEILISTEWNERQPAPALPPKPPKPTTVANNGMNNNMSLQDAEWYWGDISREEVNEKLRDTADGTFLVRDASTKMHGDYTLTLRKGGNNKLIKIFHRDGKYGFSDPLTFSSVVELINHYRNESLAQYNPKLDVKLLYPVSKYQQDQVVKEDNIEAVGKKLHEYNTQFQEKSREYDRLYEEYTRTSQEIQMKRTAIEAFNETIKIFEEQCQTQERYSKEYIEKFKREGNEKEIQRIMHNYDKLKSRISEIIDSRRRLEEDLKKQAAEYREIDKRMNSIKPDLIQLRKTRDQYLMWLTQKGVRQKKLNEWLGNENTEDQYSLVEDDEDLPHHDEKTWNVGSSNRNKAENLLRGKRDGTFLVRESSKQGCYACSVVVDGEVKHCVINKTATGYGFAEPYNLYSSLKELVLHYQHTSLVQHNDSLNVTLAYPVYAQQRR

| SMILES | inhibition at 0.1 µM [1] | IC50 [8] | IC50 [9] | inhibition at 10 µM [2] | IC50 [3] | IC50 [4] | IC50 [5] | IC50 [6] | IC50 [7] | IC50 [10] | IC50 [11] | IC50 [12] | IC50 [13] | IC50 [14] | IC50 [15] |
| --- | --- | --- | --- | --- | --- | --- | --- | --- | --- | --- | --- | --- | --- | --- | --- |
| CC(C)(C#N)c1ccc(-n2c(=O)n(S(C)(=O)=O)c3cnc4ccc(Br)cc4c32)cc1 [Example 18, 2-(4-(8-Bromo-3-(methylsulfonyl)-2-oxo-2,3-dihydro-1H-imidazo[4,5-c]quinolin-1-yl)phenyl)-2-methylpropanenitrile] | 10 to 50% | 1000 to 10000 nM |  |  | ≤ 1000 nM | 1000 to 3000 nM | ≤ 1000 nM |  |  | 1000 to 3000 nM | 1000 to 3000 nM | 1000 to 3000 nM | 1000 to 3000 nM |  |  |
| Cc1cccc(S(=O)(=O)n2c(=O)n(-c3ccc(C(C)(C)C#N)cc3)c3c4cc(Cl)ccc4ncc32)c1 [Example 19, 2-(4-(8-Chloro-2-oxo-3-(m-tolylsulfonyl)-2,3-dihydro-1H-imidazo[4,5-c]quinolin-1-yl)phenyl)-2-methylpropanenitrile] |  |  |  |  | 1000 to 3000 nM | 1000 to 3000 nM |  | > 3000 nM |  | ≤ 1000 nM | > 3000 nM |  | > 3000 nM |  |  |
| CC(=O)c1ccc(S(=O)(=O)n2c(=O)n(-c3ccc(C(C)(C)C#N)cc3)c3c4cc(C)ccc4ncc32)cc1 [Example 25, 2-(4-(3-(4-Acetylphenylsulfonyl)-8-methyl-2-oxo-2,3-dihydro-1H-imidazo[4,5-c]quinolin-1-yl)phenyl)-2-methylpropanenitrile] |  | > 30000 nM |  |  | > 3000 nM | > 3000 nM | > 3000 nM |  |  | > 3000 nM |  |  |  | > 3000 nM | > 3000 nM |

More lines, main results first:

| inhibition at 0.1 µM [1] | IC50 [8] | IC50 [9] | SMILES | inhibition at 10 µM [2] | IC50 [3] | IC50 [4] | IC50 [5] | IC50 [6] | IC50 [7] | IC50 [10] | IC50 [11] | IC50 [12] | IC50 [13] | IC50 [14] | IC50 [15] |
| --- | --- | --- | --- | --- | --- | --- | --- | --- | --- | --- | --- | --- | --- | --- | --- |
| 10 to 50% | 1000 to 10000 nM | ≤ 1000 nM | CC(C)(C#N)c1ccc(-n2c(=O)n(S(=O)(=O)c3ccccc3C#N)c3cnc4ccc(Br)cc4c32)cc1 [Example 2, 2-(8-Bromo-1-(4-(2-cyanopropan-2-yl)phenyl)-2-oxo-1H-imidazo[4,5-c]quinolin-3 (2H)-ylsulfonyl)benzonitrile] | 10 to 50% | ≤ 1000 nM | ≤ 1000 nM | ≤ 1000 nM | 1000 to 3000 nM | > 3000 nM |  |  |  |  |  |  |
| 10 to 50% | 1000 to 10000 nM |  | CC(C)(C#N)c1ccc(-n2c(=O)n(S(=O)(=O)c3ccc(F)cc3F)c3cnc4ccc(Br)cc4c32)cc1 [Example 17, 2-(4-(8-Bromo-3-(2,4-difluorophenylsulfonyl)-2-oxo-2,3-dihydro-1H-imidazo[4,5-c]quinolin-1-yl)phenyl)-2-methylpropanenitrile] | > 50% | 1000 to 3000 nM | 1000 to 3000 nM | ≤ 1000 nM |  |  | 1000 to 3000 nM | 1000 to 3000 nM | 1000 to 3000 nM | 1000 to 3000 nM |  |  |
